From patent publication US20200370015A1, “METHOD FOR PRODUCING ERYTHROID PROGENITOR CELLS” (ETABLISSEMENT FRANCAIS DU SANG, priority 2017, published 2020)

How the values were obtained:
Format in all cases: cell-based, human
[1] = system: CD34+ HTERT BMI1 LMO2; assay: Amplification of erythroid progenitors from engineered cytapheresis HSCs overexpressing HTERT, BMI1 and LMO2 (cell count); conditions: cell count on day 65
Procedure: (§1) IMDM (Biochrom), supplemented with transferrin (330 μg/mL), insulin (10 μg/mL), 5% AB serum pool (EFS) and heparin (3 U/mL). From day 0 to day 7, the medium was supplemented with IL-3 (5 ng/mL), SCF (100 ng/mL) and EPO (2 IU/mL). From day 7 until the end of the amplification of erythroblastic progenitors, the medium was supplemented with SCF (100 ng/mL) and EPO (2 IU/mL).
(§2) HSCs are obtained from cytapheresis after magnetic separation using Miltenyi CD34+ beads.
(§3) On day 0 the cells were seeded at a concentration of 100,000 cells/mL, for two successive infections with the HTERT BMI1 lentiviral supernatant and the BCL-XL retroviral supernatant or the HTERT BMI1 lentiviral supernatant and the LMO2 lentiviral supernatant; on day 3 the cells were washed 3 times and reseeded at a concentration of 10,000 cells/mL, on day 4 the cells were diluted to 1/5 in new medium. On day 7 the cells were washed and cultured at 100,000 cells/mL in new medium. On day 11 the cells were diluted to 100,000 cells/mL and seeded in a new medium. On day 14 the cells were reseeded to 300,000 cells/mL in a new medium. On day 18 the cells were diluted to 0.5 million/mL. From day 21 onwards, the cells were systematically reset to 1 million/mL each day of maintenance (i.e., twice per week).
(§4) Protocol 1: From day 0 to day 11 the cells are cultured in the basal medium. […]

[2] = system: CD34+ HTERT BMI1 BCL-XL; assay: Amplification of erythroid progenitors from engineered cytapheresis HSCs overexpressing HTERT, BMI1 and BCL-XL (cell count); conditions: cell count on day 65
Procedure: as §1, §2, §3, §4

[3] = system: CD34+ from cytapheresis; assay: Amplification of erythroid progenitors from CD34+ HSCs derived from cytapheresis (cell count); conditions: cell count after culture
Procedure: as §1
HSCs are obtained after magnetic separation using CD34+ beads according to the protocol provided by Milenyi (see CD34 MicroBead Kit, human, from Miltenyi Biotec).
On day 0 the cells were seeded at a concentration of 10,000 cells/mL, on day 4 the cells were diluted 1/5 in new medium, on day 7 the cells were washed and cultured at 100,000 cells/mL in new medium. On day 11 the cells were diluted to 100,000 cells/mL and seeded in a new medium. On day 14 the cells were reseeded at 300,000 cells/mL in a new medium. On day 18 the cells were diluted to 0.5 million/mL. From day 21 onwards, the cells were systematically returned to 1 million/mL on each maintenance day (i.e., twice per week).
Protocol 1: From day 0 to day 11 the cells are cultured in the basal medium. On day 11 the medium used is supplemented with 253.9 μM DMOG. […]
The cells are diluted to a tenth in trypan blue solution, allowing cell mortality to be assessed if necessary.

SMILES: C[C@@H]1C[C@H]2[C@@H]3CCC4=CC(=O)C=C[C@]4(C)[C@@]3(F)[C@@H](O)C[C@]2(C)[C@@]1(O)C(=O)CO [Protocol 3, dexamethasone]
- amplification of erythroid progenitors/CD34+ (CD34+ HTERT BMI1 LMO2) [1]: 5.12 · 10^6
- amplification of erythroid progenitors/CD34+ (CD34+ HTERT BMI1 BCL-XL) [2]: 5.76 · 10^5
- amplification of erythroid progenitors/CD34+ from cytapheresis on day 58 [3]: 2.47 · 10^7
